Test results as given in US9012635B2, “Pyridone amides and analogs exhibiting anti-cancer and anti-proliferative activities” (Deciphera Pharmaceuticals, LLC, priority 2013, dated 2015).
Structures can show the parent of a compound that is named as a salt.

Assays:
[1] = target: T1, c-MET kinase (Seq. ID No. 2) (Homo sapiens, UniProt P08581); experiment: c-MET kinase assay (pyruvate kinase/lactate dehydrogenase coupled, A340); assay type: biochemical; conditions: enzymatic assay, 0.5 h pre-incubation, ATP 100 μM; read-out: cMET
T1 construct: c-MET (c-MET residues: 956-1390, from Invitrogen, catalogue #PV3143, 6 nM); purchased Invitrogen PV3143
Experimental: Activity of c-MET kinase (Seq. ID No. 2) was determined by following the production of ADP from the kinase reaction through coupling with the pyruvate kinase/lactate dehydrogenase system (e.g., Schindler et al. Science 2000, 289, pp. 1938-1942). In this assay, the oxidation of NADH (thus the decrease at A340 nm) was continuously monitored spectrophotometrically. The reaction mixture (100 μl) contained c-MET (c-MET residues: 956-1390, from Invitrogen, catalogue #PV3143, 6 nM), polyE4Y (1 mg/mL), MgCl2 (10 mM), pyruvate kinase (4 units), lactate dehydrogenase (0.7 units), phosphoenol pyruvate (1 mM), and NADH (0.28 mM) in 90 mM Tris buffer containing 0.25 mM DTT, 0.2% octyl-glucoside and 1% DMSO, pH 7.5. Test compounds were incubated with c-MET (Seq. ID No. 2) and other reaction reagents at 22° C. for 0.5 h before ATP (100 μM) was added to start the reaction. The absorption at 340 nm was monitored continuously for 2 hours at 30° C. on Polarstar Optima plate reader (BMG). The reaction rate was calculated using the 1.0 to 2.0 h time frame. Percent inhibition was obtained by comparison of reaction rate with that of a control (i.e., with no test compound). IC50 values were calculated from a series of percent inhibition values determined at a range of inhibitor concentrations using software routines as implemented in the GraphPad Prism software package.

[2] = target: T2, c-KIT kinase (Seq. ID No. 1) (Homo sapiens, UniProt P10721); experiment: c-KIT kinase assay (pyruvate kinase/lactate dehydrogenase coupled, A340); assay type: biochemical; conditions: enzymatic assay, ATP 200 μM; read-out: cKIT
T2 construct: c-KIT (cKIT residues T544-V976, from ProQinase, 5.4 nM); purchased ProQinase
Experimental: Activity of c-KIT kinase (Seq. ID No. 1) was determined by following the production of ADP from the kinase reaction through coupling with the pyruvate kinase/lactate dehydrogenase system (e.g., Schindler et al. Science 2000, 289, pp. 1938-1942). In this assay, the oxidation of NADH (thus the decrease at A340 nm) was continuously monitored spectrophotometrically. The reaction mixture (100 μl) contained c-KIT (cKIT residues T544-V976, from ProQinase, 5.4 nM), polyE4Y (1 mg/mL), MgCl2 (10 mM), pyruvate kinase (4 units), lactate dehydrogenase (0.7 units), phosphoenol pyruvate (1 mM), and NADH (0.28 mM) in 90 mM Tris buffer containing 0.2% octyl-glucoside and 1% DMSO, pH 7.5. Test compounds were incubated with c-KIT (Seq. ID No. 1) and other reaction reagents at 22° C. for less than 2 min before ATP (200 μM) was added to start the reaction. The absorption at 340 nm was monitored continuously for 0.5 hours at 30° C. on Polarstar Optima plate reader (BMG). The reaction rate was calculated using the 0 to 0.5 h time frame. Percent inhibition was obtained by comparison of reaction rate with that of a control (i.e., with no test compound). IC50 values were calculated from a series of percent inhibition values determined at a range of inhibitor concentrations using software routines as implemented in the GraphPad Prism software package.

EBC-1 cells = experiment: EBC-1 cell proliferation assay (resazurin); assay type: cell-based; conditions: Homo sapiens, 67 h + 5 h resazurin, read-out: EBC1 Proliferation
Experimental: (§1) EBC-1 cells (catalog #JCRB0820) were obtained from the Japan Health Science Research Resources Bank, Osaka, Japan. Briefly, cells were grown in DMEM supplemented with 10% characterized fetal bovine serum (Invitrogen, Carlsbad, Calif.) at 37° C., 5% CO2, 95% humidity. Cells were allowed to expand until reaching 70-95% confluency at which point they were subcultured or harvested for assay use.
(§2) A serial dilution of test compound was dispensed into a 96-well black clear bottom plate (Corning, Corning, N.Y.). For each cell line, five thousand cells were added per well in 200 μL complete growth medium. Plates were incubated for 67 hours at 37° C., 5% CO2, 95% humidity. At the end of the incubation period 40 μL of a 440 μM solution of resazurin (Sigma, St. Louis, Mo.) in PBS was added to each well and incubated for an additional 5 hours at 37° C., 5% CO2, 95% humidity. Plates were read on a Synergy2 reader (Biotek, Winooski, Vt.) using an excitation of 540 nm and an emission of 600 nm. Data was analyzed using Prism software (GraphPad, San Diego, Calif.) to calculate IC50 values.

MKN-45 cells = experiment: MKN-45 cell proliferation assay (resazurin); assay type: cell-based; conditions: Homo sapiens, 67 h + 5 h resazurin
Experimental: as §1, with “MKN-45” for “EBC-1”, “#JCRB0254)” for “#JCRB0820)”, “RPMI 1640 media” for “DMEM”
as §2, with “Corning, N.Y.). Five thousand cells” for “Corning, N.Y.). For each cell line, five thousand cells”, “well and plates were incubated for” for “well and incubated for”, “additional 5 h at 37°” for “additional 5 hours at 37°”

T1 sequence (P08581 with tags, fused parts or gaps): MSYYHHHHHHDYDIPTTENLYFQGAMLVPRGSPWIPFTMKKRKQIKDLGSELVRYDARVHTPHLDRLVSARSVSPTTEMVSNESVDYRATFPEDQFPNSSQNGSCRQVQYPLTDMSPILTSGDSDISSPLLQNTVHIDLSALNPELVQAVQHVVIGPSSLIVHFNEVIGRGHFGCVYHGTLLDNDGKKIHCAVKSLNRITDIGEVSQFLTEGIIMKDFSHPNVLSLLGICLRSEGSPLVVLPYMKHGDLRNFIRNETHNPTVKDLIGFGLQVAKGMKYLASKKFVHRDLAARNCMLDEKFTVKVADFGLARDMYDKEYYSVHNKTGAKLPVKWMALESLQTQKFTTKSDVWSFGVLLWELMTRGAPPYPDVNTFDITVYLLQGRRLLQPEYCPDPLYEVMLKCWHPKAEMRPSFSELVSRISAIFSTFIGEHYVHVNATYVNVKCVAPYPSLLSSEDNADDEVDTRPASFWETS
T2 sequence (P10721 with tags, fused parts or gaps): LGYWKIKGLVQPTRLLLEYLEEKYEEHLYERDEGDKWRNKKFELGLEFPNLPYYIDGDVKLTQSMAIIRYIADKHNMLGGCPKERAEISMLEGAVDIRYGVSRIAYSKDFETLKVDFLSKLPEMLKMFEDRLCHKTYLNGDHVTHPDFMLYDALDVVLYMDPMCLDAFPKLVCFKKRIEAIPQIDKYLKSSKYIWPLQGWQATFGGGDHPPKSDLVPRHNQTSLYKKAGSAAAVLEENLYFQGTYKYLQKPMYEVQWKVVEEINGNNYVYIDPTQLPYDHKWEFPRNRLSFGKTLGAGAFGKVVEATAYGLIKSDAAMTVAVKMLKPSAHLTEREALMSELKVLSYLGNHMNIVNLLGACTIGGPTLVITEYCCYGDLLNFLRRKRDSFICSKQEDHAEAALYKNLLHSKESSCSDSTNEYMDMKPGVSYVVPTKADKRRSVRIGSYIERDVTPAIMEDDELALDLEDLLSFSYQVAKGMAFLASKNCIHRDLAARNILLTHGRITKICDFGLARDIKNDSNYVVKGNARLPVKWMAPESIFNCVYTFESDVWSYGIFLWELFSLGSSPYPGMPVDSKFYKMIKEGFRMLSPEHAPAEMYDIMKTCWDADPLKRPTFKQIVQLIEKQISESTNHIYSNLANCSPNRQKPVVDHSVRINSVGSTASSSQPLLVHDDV

Row | IC50 [1] | IC50 [2] | IC50 (MKN-45 cells) | SMILES | IC50 (EBC-1 cells)
1 | ≤ 100 nM | > 1000 nM |  | O=C(Nc1cc(F)c(Oc2ccnc(-c3cnn(CCO)c3)c2)cc1F)c1cccn(-c2ccc(F)cc2)c1=O [Example 3, N-(2,5-difluoro-4-((2-(1-(2-hydroxyethyl)-1H-pyrazol-4-yl)pyridin-4-yl)oxy)phenyl)-1-(4-fluorophenyl)-2-oxo-1,2-dihydropyridine-3-carboxamide hydrochloride] | 
2 | ≤ 100 nM | ≤ 100 nM | ≤ 100 nM | Cn1cc(-c2cc(Oc3cc(F)c(NC(=O)c4cccn(-c5ccc(F)cc5)c4=O)cc3F)ccn2)cn1 [Example 1, N-(2,5-difluoro-4-((2-(1-methyl-1H-pyrazol-4-yl)pyridin-4-yl)oxy)phenyl)-1-(4-fluorophenyl)-2-oxo-1,2-dihydropyridine-3-carboxamide] | ≤ 100 nM
3 | ≤ 100 nM | > 1000 nM | 100 to 1000 nM | CCNc1ccn(-c2ccc(F)cc2)c(=O)c1C(=O)Nc1cc(F)c(Oc2ccnc(-c3cnn(C)c3)c2)cc1F [Example 5, N-(2,5-difluoro-4-((2-(1-methyl-1H-pyrazol-4-yl)pyridin-4-yl)oxy)phenyl)-4-(ethylamino)-1-(4-fluorophenyl)-2-oxo-1,2-dihydropyridine-3-carboxamide] | 100 to 1000 nM
4 | ≤ 100 nM | > 1000 nM | ≤ 100 nM | CCOc1ccn(-c2ccc(F)cc2)c(=O)c1C(=O)Nc1cc(F)c(Oc2ccnc(-c3cnn(C)c3)c2)cc1F [Example 2, N-(2,5-difluoro-4-(2-(1-methyl-1H-pyrazol-4-yl)pyridin-4-yloxy)phenyl)-4-ethoxy-1-(4-fluorophenyl)-2-oxo-1,2-dihydropyridine-3-carboxamide] | ≤ 100 nM
